According to publication PMC10439952, “JT002, a small molecule inhibitor of the NLRP3 inflammasome for the treatment of autoinflammatory disorders” (Scientific Reports, 2023):

Tests used:
Format in all cases: cell-based
NLRP3 inflammasome [1] = target: T1, NLRP3 inflammasome (Mus musculus, UniProt Q8R4B8); assay: Inhibition of IL-1β production in mouse PBMCs stimulated by LPS + ATP; design: host or cells: mouse PBMCs; mouse bone-marrow derived macrophages; mouse whole blood (C57BL/6 in the ex vivo study); settings: Mouse PBMC, read-out: Geo Av IC50, IL-1β
Experimental: (§1) Inflammasome activation and whole blood assays were essentially carried out as described earlier. Details can be found in the supplementary information section accompanying this publication. A protocol for blood draws from healthy volunteers and use of the blood in preclinical assays was approved by Western Institutional Review Board, Inc (Puyallup, WA, USA). Informed consent was obtained from each donor prior to the first blood draw.
(§2) Cell viability was determined by addition of an equal volume of CellTiter-Glo® 2.0 reagent (Promega) to the remaining cells/supernatant in each well. Intracellular Caspase-1 activity was measured using the Caspase-Glo® assay (Promega) according to the manufacturer’s instructions. The biochemical capsase-1 assay was conducted at Reaction Biology Corporation (Malvern, USA). Human IL-1β, IL-1α, and TNFα and mouse IL-1β were measured in cell culture supernatants using homogeneous time resolved fluorescence assay kits (HTRF, Cisbio, Codolet, France). Human IL-18 was measured in cell culture supernatants using an ELISA kit (R&D Systems, Minneapolis, MN, USA). Plasma IL-1β concentrations were determined by Quantikine® ELISA (R&D Systems, Minneapolis, MN).
(§3) 4H). MS: m/z 433.1 (M+H+). […]

NLRP3 inflammasome [2] = target: T1, NLRP3 inflammasome; assay: Inhibition of IL-1β production in mouse BMDMs stimulated by LPS + monosodium urate crystals; design: host or cells: mouse PBMCs; mouse bone-marrow derived macrophages; mouse whole blood (C57BL/6 in the ex vivo study); settings: Mouse BMDM, read-out: Geo Av IC50, IL-1β
Experimental: as §1, §2, §3

NLRP3 inflammasome [3] = target: T2, NLRP3 inflammasome (Rattus norvegicus, UniProt D4A523); assay: Inhibition of IL-1β production in rat PBMCs stimulated by LPS + nigericin; settings: Rat PBMC, read-out: Geo Av IC50, IL-1β
T2 construct: host or cells: rat PBMCs
Excerpt: as §1
4H). MS: m/z 433.1 (M+H+).
Inflammasome activation.PBMCs (iXCells Biotechnologies, San Diego, USA) were thawed the day before the assay and seeded in complete medium (RPMI 1640 medium with GlutaMAX, supplemented with an additional 2.5 g/L D-glucose, 10% Fet al Bovine Serum, 100 mM Sodium Pyruvate, 1% Penicillin/Streptomycin, 10 mM HEPES and 0.05 mM β -mercaptoethanol) in polystyrene V-bottom 96-well plates at 5x10^4 cells per well and incubated overnight at 37°C with 5% CO 2. […]
flagellin, prepared in Opt iMEM and combined with Lipofectamine 2000. […] After priming Nlrp3 -/- mBMDMs with 100 ng/mL of LPS for 3- 5 h, cells were exposed to 100 ng/mL L18- MDP and incubated overnight.At the end of the incubation period of the assays above, plates were briefly centri fuged and hal f of the cell culture supern atant remo ved and either analysed i mmediately or stored at - 80°C for subs equent cytokine […]

NLRP3 inflammasome [4] = target: T1, NLRP3 inflammasome; assay: Inhibition of IL-1β production in mouse BMDMs stimulated by LPS + ATP; design: host or cells: mouse PBMCs; mouse bone-marrow derived macrophages; mouse whole blood (C57BL/6 in the ex vivo study); settings: Mouse BMDM, read-out: Geo Av IC50, IL-1β
Experimental: as §1, §2, §3

NLRP3 inflammasome [5] = target: T1, NLRP3 inflammasome; assay: Inhibition of IL-1β production in mouse BMDMs stimulated by LPS + cholesterol crystals; design: host or cells: mouse PBMCs; mouse bone-marrow derived macrophages; mouse whole blood (C57BL/6 in the ex vivo study); settings: Mouse BMDM, read-out: Geo Av IC50, IL-1β
Experimental: as §1, §2, §3

T1 sequence (Q8R4B8 whole entry): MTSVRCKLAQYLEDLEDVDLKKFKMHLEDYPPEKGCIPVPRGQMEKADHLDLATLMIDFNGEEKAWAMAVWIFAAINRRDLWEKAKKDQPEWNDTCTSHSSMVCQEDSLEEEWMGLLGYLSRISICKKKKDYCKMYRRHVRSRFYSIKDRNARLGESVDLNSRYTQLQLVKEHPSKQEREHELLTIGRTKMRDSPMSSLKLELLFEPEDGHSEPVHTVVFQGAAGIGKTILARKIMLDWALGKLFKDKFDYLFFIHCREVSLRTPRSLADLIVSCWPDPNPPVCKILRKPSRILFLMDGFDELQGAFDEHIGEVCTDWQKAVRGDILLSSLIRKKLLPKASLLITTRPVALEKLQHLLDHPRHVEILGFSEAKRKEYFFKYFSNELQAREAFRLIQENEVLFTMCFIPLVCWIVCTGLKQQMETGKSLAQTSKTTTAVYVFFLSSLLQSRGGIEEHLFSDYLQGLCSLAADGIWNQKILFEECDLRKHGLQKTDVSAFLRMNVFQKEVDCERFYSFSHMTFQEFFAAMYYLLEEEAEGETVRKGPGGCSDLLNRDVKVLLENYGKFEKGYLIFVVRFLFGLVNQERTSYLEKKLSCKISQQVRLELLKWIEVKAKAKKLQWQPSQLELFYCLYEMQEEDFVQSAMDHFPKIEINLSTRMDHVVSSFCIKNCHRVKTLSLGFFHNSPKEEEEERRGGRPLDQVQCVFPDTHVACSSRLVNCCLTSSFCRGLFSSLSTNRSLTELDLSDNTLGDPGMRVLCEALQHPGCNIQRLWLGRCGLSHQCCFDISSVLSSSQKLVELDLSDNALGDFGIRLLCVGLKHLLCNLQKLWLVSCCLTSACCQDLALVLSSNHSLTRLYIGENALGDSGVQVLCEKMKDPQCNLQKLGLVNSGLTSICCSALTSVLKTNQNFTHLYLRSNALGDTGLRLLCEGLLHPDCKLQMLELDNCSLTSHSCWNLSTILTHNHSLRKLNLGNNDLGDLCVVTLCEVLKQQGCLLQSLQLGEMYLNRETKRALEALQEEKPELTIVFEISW
T2 sequence (D4A523 whole entry): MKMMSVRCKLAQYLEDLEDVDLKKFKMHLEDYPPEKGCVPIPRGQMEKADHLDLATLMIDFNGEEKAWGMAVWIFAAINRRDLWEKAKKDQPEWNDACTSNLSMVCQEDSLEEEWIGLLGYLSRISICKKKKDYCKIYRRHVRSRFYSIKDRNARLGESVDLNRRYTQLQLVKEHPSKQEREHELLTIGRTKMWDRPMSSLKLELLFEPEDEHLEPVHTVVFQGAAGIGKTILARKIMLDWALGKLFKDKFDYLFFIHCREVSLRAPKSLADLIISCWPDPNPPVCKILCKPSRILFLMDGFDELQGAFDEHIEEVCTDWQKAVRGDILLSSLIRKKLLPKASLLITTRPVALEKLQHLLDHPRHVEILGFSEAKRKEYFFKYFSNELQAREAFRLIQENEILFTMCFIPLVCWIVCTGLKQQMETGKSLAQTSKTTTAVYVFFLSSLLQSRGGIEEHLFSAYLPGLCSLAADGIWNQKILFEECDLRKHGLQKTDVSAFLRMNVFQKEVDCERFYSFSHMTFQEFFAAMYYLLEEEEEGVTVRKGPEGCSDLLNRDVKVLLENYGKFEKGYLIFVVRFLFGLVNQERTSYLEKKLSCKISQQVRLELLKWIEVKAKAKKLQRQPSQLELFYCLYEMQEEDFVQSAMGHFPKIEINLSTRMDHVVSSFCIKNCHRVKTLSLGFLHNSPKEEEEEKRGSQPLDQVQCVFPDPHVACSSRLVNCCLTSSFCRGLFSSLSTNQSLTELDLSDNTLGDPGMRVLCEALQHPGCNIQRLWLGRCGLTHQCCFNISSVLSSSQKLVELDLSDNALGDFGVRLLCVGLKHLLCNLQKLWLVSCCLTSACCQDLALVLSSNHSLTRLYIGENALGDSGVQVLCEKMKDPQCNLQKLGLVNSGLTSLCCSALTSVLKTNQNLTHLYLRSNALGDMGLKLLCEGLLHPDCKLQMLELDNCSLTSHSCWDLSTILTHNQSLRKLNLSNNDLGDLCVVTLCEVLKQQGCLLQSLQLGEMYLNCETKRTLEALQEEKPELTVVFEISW

IC50 (NLRP3 inflammasome [1]): 7 nM
IC50 (NLRP3 inflammasome [2]): 3 nM
IC50 (NLRP3 inflammasome [3]): 159 nM
IC50 (NLRP3 inflammasome [4]): 5 nM
IC50 (NLRP3 inflammasome [5]): 2 nM
Structure (SMILES): CO[C@@H]1COc2c(S(=O)(=O)NC(=O)Nc3c4c(cc5c3CCC5)CCC4)cnn2C1 [JT002]
